In ChEMBL document CHEMBL5465560, “Selectivity Literature for EUbOPEN Chemogenomic Library” (2024) one finds % of control and % binding data, which are given here for six compounds.

Assay [1] deals with T1, Non-receptor tyrosine-protein kinase TNK1 (Homo sapiens) (UniProt Q13470).
T1 sequence (whole entry): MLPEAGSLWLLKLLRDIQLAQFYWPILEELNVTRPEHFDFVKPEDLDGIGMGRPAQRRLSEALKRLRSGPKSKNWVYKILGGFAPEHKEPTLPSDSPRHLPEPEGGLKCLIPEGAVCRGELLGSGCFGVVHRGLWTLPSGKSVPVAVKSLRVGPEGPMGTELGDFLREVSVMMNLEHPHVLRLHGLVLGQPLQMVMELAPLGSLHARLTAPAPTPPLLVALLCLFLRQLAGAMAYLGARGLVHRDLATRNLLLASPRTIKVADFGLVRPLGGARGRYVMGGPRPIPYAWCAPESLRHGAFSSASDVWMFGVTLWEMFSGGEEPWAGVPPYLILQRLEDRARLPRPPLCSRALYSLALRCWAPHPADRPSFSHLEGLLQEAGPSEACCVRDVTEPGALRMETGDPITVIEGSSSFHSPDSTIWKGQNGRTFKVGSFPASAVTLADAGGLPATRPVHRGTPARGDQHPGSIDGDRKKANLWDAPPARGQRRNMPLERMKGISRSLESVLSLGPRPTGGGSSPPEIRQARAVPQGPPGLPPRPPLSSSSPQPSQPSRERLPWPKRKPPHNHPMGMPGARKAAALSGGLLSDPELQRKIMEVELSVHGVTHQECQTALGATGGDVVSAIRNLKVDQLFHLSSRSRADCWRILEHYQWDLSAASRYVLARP
As to conditions: at 10 µM.

The test system of assay [2] is Tyrosine-protein kinase ABL1 (Homo sapiens), P00519 [F317L]. As to conditions: at 10 µM.
Tyrosine-protein kinase ABL1 (Homo sapiens), P00519 [F317L], sequence (P00519 whole entry F317L): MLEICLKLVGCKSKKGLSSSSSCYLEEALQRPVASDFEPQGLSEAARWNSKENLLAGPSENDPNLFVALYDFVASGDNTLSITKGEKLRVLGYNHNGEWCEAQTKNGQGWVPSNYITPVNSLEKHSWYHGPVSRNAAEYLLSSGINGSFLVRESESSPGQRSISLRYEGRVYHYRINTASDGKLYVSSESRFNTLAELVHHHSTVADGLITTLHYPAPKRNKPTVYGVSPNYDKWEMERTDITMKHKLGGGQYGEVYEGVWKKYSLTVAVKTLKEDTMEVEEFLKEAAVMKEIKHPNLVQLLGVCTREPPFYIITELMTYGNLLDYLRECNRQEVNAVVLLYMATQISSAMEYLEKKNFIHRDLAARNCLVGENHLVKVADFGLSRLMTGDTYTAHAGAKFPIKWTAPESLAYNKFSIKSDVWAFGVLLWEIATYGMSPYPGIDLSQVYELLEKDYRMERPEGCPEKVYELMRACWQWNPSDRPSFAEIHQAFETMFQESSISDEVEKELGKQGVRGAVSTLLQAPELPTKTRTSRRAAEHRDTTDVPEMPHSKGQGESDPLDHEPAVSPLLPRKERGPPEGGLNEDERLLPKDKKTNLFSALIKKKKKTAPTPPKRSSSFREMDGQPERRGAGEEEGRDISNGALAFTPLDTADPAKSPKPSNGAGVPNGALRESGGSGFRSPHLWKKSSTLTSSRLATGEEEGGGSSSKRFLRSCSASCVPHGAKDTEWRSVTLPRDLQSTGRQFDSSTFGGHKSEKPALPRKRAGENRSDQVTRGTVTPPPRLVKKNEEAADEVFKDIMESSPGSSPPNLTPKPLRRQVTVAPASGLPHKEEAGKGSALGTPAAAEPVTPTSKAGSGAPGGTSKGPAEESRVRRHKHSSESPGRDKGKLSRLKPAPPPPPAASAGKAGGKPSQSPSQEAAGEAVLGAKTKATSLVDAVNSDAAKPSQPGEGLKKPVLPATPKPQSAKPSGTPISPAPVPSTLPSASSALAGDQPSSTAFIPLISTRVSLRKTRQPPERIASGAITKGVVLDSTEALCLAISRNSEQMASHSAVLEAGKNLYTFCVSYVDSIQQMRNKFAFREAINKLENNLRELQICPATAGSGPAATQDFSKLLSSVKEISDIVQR
Assay [3] addresses T2, Serine/threonine-protein kinase Sgk2 (Homo sapiens) (UniProt Q9HBY8).
T2 sequence (whole entry): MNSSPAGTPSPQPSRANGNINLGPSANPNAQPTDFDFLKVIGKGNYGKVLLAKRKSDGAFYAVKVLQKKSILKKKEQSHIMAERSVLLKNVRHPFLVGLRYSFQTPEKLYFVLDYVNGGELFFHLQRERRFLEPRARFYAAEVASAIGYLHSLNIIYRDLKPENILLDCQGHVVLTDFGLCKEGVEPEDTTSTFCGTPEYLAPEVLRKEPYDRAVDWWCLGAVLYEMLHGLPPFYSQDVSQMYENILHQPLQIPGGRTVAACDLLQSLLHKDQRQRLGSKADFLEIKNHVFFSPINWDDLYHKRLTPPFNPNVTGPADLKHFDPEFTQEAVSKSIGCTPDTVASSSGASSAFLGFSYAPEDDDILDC
Briefly: Selectivity interaction (KinomeScan (DiscoverX)) EUB0000229b SGK2. As to conditions: at 10 µM.

Assay [4] has as its target T3, cGMP-dependent protein kinase 1 (Homo sapiens) (UniProt Q13976).
T3 sequence (whole entry): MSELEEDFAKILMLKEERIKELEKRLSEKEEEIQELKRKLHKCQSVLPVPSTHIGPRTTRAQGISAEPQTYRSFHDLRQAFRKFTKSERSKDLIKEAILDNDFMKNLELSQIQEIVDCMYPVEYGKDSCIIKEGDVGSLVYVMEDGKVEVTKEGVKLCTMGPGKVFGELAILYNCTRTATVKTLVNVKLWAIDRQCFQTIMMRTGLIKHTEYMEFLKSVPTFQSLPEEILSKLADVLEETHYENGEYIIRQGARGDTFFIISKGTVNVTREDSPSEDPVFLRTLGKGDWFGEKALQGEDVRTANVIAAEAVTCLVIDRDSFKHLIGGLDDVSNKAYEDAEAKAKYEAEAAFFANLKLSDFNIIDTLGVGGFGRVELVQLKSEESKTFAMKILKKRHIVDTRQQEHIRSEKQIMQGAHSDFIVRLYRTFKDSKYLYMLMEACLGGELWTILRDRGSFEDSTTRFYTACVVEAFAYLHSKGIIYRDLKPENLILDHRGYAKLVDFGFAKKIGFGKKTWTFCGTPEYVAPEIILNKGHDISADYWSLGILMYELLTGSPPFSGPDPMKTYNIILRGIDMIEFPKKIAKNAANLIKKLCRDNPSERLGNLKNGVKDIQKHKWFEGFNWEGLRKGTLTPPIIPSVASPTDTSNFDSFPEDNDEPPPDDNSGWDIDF
Briefly: Selectivity interaction (KinomeScan (DiscoverX)) EUB0000655a PRKG1. To be noted: at 10 µM.

Assay [5] deals with Serine/threonine-protein kinase SBK1 (Homo sapiens) (UniProt Q52WX2). Briefly: Selectivity interaction (KinomeScan (DiscoverX)) EUB0000695a SBK1. To be noted: at 100 nM.
Serine/threonine-protein kinase SBK1 (Homo sapiens), sequence (Q52WX2 whole entry): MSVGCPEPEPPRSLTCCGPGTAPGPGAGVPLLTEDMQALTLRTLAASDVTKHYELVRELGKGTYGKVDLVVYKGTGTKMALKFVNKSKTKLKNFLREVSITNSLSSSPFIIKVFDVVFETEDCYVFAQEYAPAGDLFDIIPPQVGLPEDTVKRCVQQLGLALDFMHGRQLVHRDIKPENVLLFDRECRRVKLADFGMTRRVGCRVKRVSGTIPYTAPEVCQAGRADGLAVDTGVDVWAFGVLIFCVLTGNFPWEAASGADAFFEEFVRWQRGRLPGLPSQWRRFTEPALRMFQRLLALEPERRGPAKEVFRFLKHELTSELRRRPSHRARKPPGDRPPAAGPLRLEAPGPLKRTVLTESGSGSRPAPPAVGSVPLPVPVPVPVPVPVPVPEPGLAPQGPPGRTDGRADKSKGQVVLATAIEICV
Assay [6] has as its target T4, Dual serine/threonine and tyrosine protein kinase (Homo sapiens) (UniProt Q6XUX3).
T4 sequence (whole entry): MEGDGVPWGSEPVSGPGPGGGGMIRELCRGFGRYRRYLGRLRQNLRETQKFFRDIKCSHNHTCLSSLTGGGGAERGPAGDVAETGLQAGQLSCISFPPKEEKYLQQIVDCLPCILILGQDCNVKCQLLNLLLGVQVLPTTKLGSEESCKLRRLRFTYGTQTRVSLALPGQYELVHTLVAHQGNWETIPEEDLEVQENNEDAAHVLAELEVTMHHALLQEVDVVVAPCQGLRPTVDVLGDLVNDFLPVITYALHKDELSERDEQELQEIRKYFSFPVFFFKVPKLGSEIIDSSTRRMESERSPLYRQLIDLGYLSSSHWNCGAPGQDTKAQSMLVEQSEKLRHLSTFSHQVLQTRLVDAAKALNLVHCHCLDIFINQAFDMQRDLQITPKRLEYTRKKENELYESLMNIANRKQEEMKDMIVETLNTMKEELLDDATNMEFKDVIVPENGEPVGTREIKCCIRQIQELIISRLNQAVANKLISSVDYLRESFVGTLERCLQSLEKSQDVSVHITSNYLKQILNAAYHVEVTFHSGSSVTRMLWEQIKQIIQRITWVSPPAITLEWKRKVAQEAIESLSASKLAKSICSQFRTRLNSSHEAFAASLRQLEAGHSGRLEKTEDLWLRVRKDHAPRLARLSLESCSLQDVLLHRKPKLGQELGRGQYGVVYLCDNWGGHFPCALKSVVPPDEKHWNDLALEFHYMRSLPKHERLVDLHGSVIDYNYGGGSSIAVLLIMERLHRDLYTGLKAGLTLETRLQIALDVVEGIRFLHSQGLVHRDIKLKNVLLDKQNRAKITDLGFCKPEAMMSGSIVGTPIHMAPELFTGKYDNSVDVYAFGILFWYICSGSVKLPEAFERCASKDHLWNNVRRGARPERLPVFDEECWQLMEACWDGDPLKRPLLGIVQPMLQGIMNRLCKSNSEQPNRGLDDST
Briefly: Selectivity interaction (KinomeScan (DiscoverX)) EUB0000092b DSTYK. To be noted: at 10 µM.

Assay [7] concerns the target Cyclin-dependent kinase 3 (Homo sapiens) (UniProt Q00526). The experiment in a line: Selectivity interaction (KinomeScan (DiscoverX)) EUB0000595a CDK3. To be noted: at 10 µM.

Cyclin-dependent kinase 3 (Homo sapiens), sequence (Q00526 whole entry, looked up): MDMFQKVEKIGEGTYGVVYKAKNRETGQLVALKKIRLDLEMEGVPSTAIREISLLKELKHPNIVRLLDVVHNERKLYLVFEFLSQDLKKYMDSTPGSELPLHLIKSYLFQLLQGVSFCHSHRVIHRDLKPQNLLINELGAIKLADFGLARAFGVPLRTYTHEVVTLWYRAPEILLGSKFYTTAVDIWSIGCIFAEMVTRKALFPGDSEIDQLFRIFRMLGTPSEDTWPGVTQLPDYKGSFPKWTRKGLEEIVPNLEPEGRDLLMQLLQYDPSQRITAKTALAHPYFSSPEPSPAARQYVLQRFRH

On to `Cc1cc([C@@H](C)Nc2ccccc2C(=O)O)c2nc(N3CCOCC3)cc(=O)n2c1` [AZD-6482], for which the % of control in assay [1] amounted to 100%; in assay [2] it was 89%. On to `COc1cc(N(C)c2ccnc3ccc(C(F)(F)F)cc23)cc(OC)c1OC`, for which, in assay [3], the % binding was found to be 80%. In turn, `CN(C)CCOc1ccc(-c2nc(-c3ccncc3)c(-c3ccc4c(c3)CC/C4=N\O)[nH]2)cc1` displayed a % of control in assay [4] of 89%.

Regarding `Cc1cc(F)c(C(=O)Nc2cccc(-c3nncn3C(C)C)n2)cc1-n1cnc(C2CC2)c1`, the % of control in assay [5] turned out to be 93%. In the case of `CCC(=O)N1CCN(c2ccc(-n3c(=O)ccc4cnc5ccc(-c6cnc7ccccc7c6)cc5c43)cc2C(F)(F)F)CC1`, the % of control in assay [6] is 28%. `COCC(=O)NC/C=C/c1ccc2ncnc(Nc3ccc(Oc4ccc(C)nc4)c(C)c3)c2c1` [CP-724714] came in with a % of control in assay [7] of 100%.
